Assays:
EMT-6 mammary carcinomas = experiment: Biodistribution study of CuTCPBr in mice with EMT-6 mammary carcinomas on the back (Example 5); type: in vivo, BALB/c mice; details: for Boron Concentration, Tumor / Boron Concentration, Blood / Boron Concentration, Brain / Boron Concentration, Ears (skin) / Boron Concentration, Liver / Boron Concentration, Spleen / Boron Concentration, Tongue: 6 ip injections over 2 days
Procedure: Two groups of seven (7) BALB/c mice bearing EMT-6 mammary carcinomas on the back were given CuTCPBr at a dose of 432 μg/g body weight (94 μg B/gbw) in six intraperitoneal injections over two days. Two days after the last injection, the mice in one group were euthanized and the boron concentrations in various tissues were measured. Four days after the last injection, the same procedure was carried out on the second group of mice. The average boron concentrations (mean with standard deviation in parentheses) for the two groups of mice injected with CuTCPBr are listed in the second and third columns of Table 4.
The tumor to blood boron concentration ratio after two days was approximately 8:1 and after four days it increased to 232:1. The tumor to brain boron concentration ratio after two days was approximately 197:1 and after four days it increased to 225:1.

EMT-6 mammary tumors [1] = experiment: Radiosensitizer study: tumor control with 100 kVp x-irradiation (Example 8); type: in vivo, BALB/c mice; details: for % tumor control: 89 days observation
Description: (§1) In this example, female BALB/c mice (Taconic Farms, Germantown, N.Y.) (20-25 g) were used in radiotherapy studies to compare tumor control effects in mice bearing EMT-6 mammary tumors. The EMT-6 leg tumors were formed by mincing freshly removed tumor tissue from mice into fragments no larger than 0.5 mm. The fragments were mixed in a saline solution and implanted subcutaneously (sc) in the legs of mice using an 18-gauge trocar. Tumor fragments were used because in this particular location tumors initiated by cell suspensions tend to spread in a thin subcutaneous layer and invade the subjacent muscle. Using tumor fragments, the tumors are palpable, but thinner on the leg than on the dorsal thorax. In late stage, fragment-initiated tumors can invade muscle tissue but not as frequently as do suspension-initiated tumors.
(§2) At approximately seven days after tumor implantation, the mice were stratified by tumor volume into six (6) matched experimental groups, which included five groups of twelve (12) mice each and a control group of thirty-three (33). Two groups were treated with ≈400 μg/g body weight CuTCPBr and given two doses of 100 kVp x-irradiation x-rays, two groups were treated with only two doses of 100 kVp x-irradiation, one group received CuTCPBr and were euthanized the day of irradiation. The function of the group which was immediately euthanized was to determine the boron concentration in tissues at the time of irradiation. It was not a control group upon which the effectiveness of treatment was compared. The control group of thirty-three mice was not treated at all.
In all treated groups, single-exposure irradiations were used. For the irradiation procedures, mice were anesthetized with sodium pentobarbital (≈60 μg/gbw i.p.). Each mouse was anesthetized and positioned behind a 1-cm thick lead shield with the tumor-bearing leg extended across a 2-cm aperture in the lead shield in a manner similar to that used in thermal beam irradiation. […]
Tumor volumes ranged from approximately 20-170 mm^3 in each of the five groups of treated mice. Tumor dimensions were measured 2-3 times per week and mice were euthanized either when calculated tumor volumes (x^2y/2, where x is the shorter surface dimension) exceeded 500 mm^3 or when skin ulceration was observed. Mice were weighed when the tumors were measured, except during the first week, when they were weighed daily. […]
Mice were euthanized at various time points due to tumor overgrowth. The effectiveness of the treatments was measured by the “% tumor control.” The % tumor control is defined as the number of mice whose tumors were “cured” divided by the total number of mice in a particular dose group. […]

[2] = Toxicity observation during and after porphyrin administration and at necropsy (Examples 2 and 3); type: in vivo; details: Examples 2 and 3 (186 or 156 μg CuTCPBr/g)
Description: Toxicity is the critical factor, and since no toxicity was observed, the dose can be increased to achieve tumor boron concentrations higher than those in Examples 2 and 3.

EMT-6 mammary tumors [3] = experiment: Boron concentrations in tissues at the time of irradiation (Example 8); type: in vivo, BALB/c mice; details: ≈400 μg/g body weight CuTCPBr, euthanized the day of irradiation
Description: as §1, §2
Tumor to blood boron concentration ratios were about 4:1, which is low due to the high blood values. Such a trend was also observed with CuTCPH at high doses of 400 mg/kg.

EMT-6 leg tumors = experiment: Boron biodistribution in mice with subcutaneous EMT-6 leg tumors (Example 3); type: in vivo, BALB/c mice; details: for Boron Concentration, Blood / Boron Concentration, Liver / Boron concentration, Cerebrum / Boron concentration, Ears / Boron Concentration, Tumor: 156 μg CuTCPBr/gbw over 2 days; for Boron Concentration, Tumor / Tumor boron concentration normalized to the dose of the first study: leg tumor; for Tumor boron concentration normalized to the dose of the first study: normalized from 156 to 186 μg/g dose
Procedure: In this example, BALB/c mice bearing subcutaneous EMT-6 leg tumors were given 156 μg CuTCPBr/gbw in a volume of 0.01 mL/gbw/injection over a period of 2 days.
There is a larger vascular system surrounding the dorsal thorax compared with the leg, which may be a factor. However, in the case of CuTCPH, the boron concentration was 30% higher in leg tumors compared to back tumors. Normalizing to the slightly higher dose of the first study, the tumor boron concentration should be about 29 and 15 μg/g at 2d and 5d, respectively, which are still low. Studies are underway to repeat these experiments.

[4] = CuTCPBr 432 μg/g body weight, after 2 days
[5] = CuTCPBr 432 μg/g body weight, after 4 days

For “copper octabromotetracarboranylphenylporphyrin [CuTCPBr]”, the “Boron Concentration, Tumor” value (EMT-6 mammary carcinomas; CuTCPBr 432 μg/g body weight (94 μg B/gbw), after 2 days) was 256 (51) μg/g, the “Boron Concentration, Blood” value (EMT-6 mammary carcinomas; [4]) was 30 (12) μg/g and the “Boron Concentration, Brain” value (EMT-6 mammary carcinomas; [4]) was 1.3 (0.4) μg/g. For the same substance, the “Boron Concentration, Ears (skin)” value (EMT-6 mammary carcinomas; [4]) was 16 (4.3) μg/g, the “Boron Concentration, Liver” value (EMT-6 mammary carcinomas; [4]) was 831 (102) μg/g and the “Boron Concentration, Spleen” value (EMT-6 mammary carcinomas; [4]) was 507 (60) μg/g. The “Boron Concentration, Tongue” value (EMT-6 mammary carcinomas; [4]) was 43 (4.1) μg/g, the “Boron Concentration, Blood” value (EMT-6 mammary carcinomas; [5]) was 0.8 (0.2) μg/g and the “Boron Concentration, Brain” value (EMT-6 mammary carcinomas; [5]) was 0.7 (0.1) μg/g. The “Boron Concentration, Ears (skin)” value (EMT-6 mammary carcinomas; [5]) was 12 (1.6) μg/g, the “Boron Concentration, Liver” value (EMT-6 mammary carcinomas; [5]) was 592 (24) μg/g and the “Boron Concentration, Spleen” value (EMT-6 mammary carcinomas; [5]) was 336 (40) μg/g. For the same substance, the “Boron Concentration, Tongue” value (EMT-6 mammary carcinomas; [5]) was 37 (4.0) μg/g, the “Boron Concentration, Tumor” value (EMT-6 mammary carcinomas; [5]) was 180 (27) μg/g and the “decrease of liver boron from two to four days” value (EMT-6 mammary carcinomas; CuTCPBr 432 μg/g body weight, indicates faster clearance time) was 29%. For the same substance, the dose modification factor (EMT-6 mammary tumors [1]; CuTCPBr in combination with x-irradiation) was greater than 1.5, the radiosensitizing effect (EMT-6 mammary tumors [1]; single dose x-irradiation in the presence of CuTCPBr) was “clear radiosensitizing effect” and the “% tumor control” value (EMT-6 mammary tumors [1]; ≈400 μg/g CuTCPBr plus single-dose 25 Gy 100 kVp x-rays, x-rays alone 25.0%) was 41.7%. For the same substance, the “% tumor control” value (EMT-6 mammary tumors [1]; ≈400 μg/g CuTCPBr plus single-dose 35 Gy 100 kVp x-rays, x-rays alone 33.3%) was 66.7%, the tissues at necropsy [2] was “all tissues appeared normal” and the “toxic effects, physically or behaviorally” value ([2]; during and after porphyrin administration) was “no toxic effects were noted”. For the same substance, the “Boron Concentration, Blood” value (EMT-6 mammary tumors [3]) was 68 (19) μg/g, the “Boron Concentration, Liver” value (EMT-6 mammary tumors [3]) was 725 (72) μg/g and the “Boron Concentration, Muscle” value (EMT-6 mammary tumors [3]) was 12 (3) μg/g. The “Boron Concentration, Skin” value (EMT-6 mammary tumors [3]) was 20 (4.3) μg/g, the “Boron Concentration, Tumor” value (EMT-6 mammary tumors [3]; leg tumor) was 277 (45) μg/g and the “Boron Concentration, Blood” value (EMT-6 leg tumors; 2 days after last injection) was 0.2 ± 0.1 µg/g. The “Boron Concentration, Liver” value (EMT-6 leg tumors; 2 days after last injection) was 271 ± 40 µg/g, the “Boron concentration, Cerebrum” value (EMT-6 leg tumors; 2 days after last injection) was 0 ± 0.1 µg/g and the “Boron concentration, Ears” value (EMT-6 leg tumors; 2 days after last injection) was 1 ± 1 µg/g. The “Boron Concentration, Tumor” value (EMT-6 leg tumors; 2 days after last injection) was 24 ± 11 µg/g, the “Boron Concentration, Blood” value (EMT-6 leg tumors; 5 days after last injection) was 0.1 ± 0.1 µg/g and the “Boron Concentration, Liver” value (EMT-6 leg tumors; 5 days after last injection) was 308 ± 40 µg/g. The “Boron concentration, Cerebrum” value (EMT-6 leg tumors; 5 days after last injection) was 0.6 ± 1 µg/g, the “Boron concentration, Ears” value (EMT-6 leg tumors; 5 days after last injection) was 0.6 ± 0.7 µg/g and the “Boron Concentration, Tumor” value (EMT-6 leg tumors; 5 days after last injection) was 13 ± 6 µg/g. The “Tumor boron concentration normalized to the dose of the first study” value (EMT-6 leg tumors; 2d) was “about 29 μg/g” and the “Tumor boron concentration normalized to the dose of the first study” value (EMT-6 leg tumors; 5d) was roughly 15 µg/g.
